Measurements published in patent publication US9315459B2, “Crystalline forms of 4-[2-(4-methylphenylsulfanyl)-phenyl] piperidine” (priority 2006, dated 2016).

How the values were obtained:
human 5-HT2A receptors = molecular target: T1, human 5-HT2A receptors (Homo sapiens, UniProt P28223); experiment: Functional assay, 5-HT evoked release of Ca2+ in CHO cells expressing human 5-HT2A receptors (FLIPR); format: cell-based; conditions: mammalian cells expressing human 5-HT2A
T1 construct: expressed in transfected cells; host or cells: CHO cells (functional assay)
Experimental: The experiment was carried out as follows. 2 or 3 days before the experiment CHO cells expressing 250 fmol/mg human 5-HT2A receptors are plated at a density sufficient to yield a mono-confluent layer on the day of the experiment. […] Lacer intensity was set to a suitable level to obtain basal values of approximately 8000-10000 fluorescence units. The variation in basal fluorescence should be less than 10%. […] Ki values are calculated using Cheng-Prusoff equation.

[1] = molecular target: T2, human-homomeric 5-HT3A receptors (Homo sapiens, UniProt P46098); experiment: Voltage clamp in oocytes expressing human-homomeric 5-HT3A receptors; format: cell-based; conditions: agonism at higher concentrations
T2 sequence (P46098 24-478): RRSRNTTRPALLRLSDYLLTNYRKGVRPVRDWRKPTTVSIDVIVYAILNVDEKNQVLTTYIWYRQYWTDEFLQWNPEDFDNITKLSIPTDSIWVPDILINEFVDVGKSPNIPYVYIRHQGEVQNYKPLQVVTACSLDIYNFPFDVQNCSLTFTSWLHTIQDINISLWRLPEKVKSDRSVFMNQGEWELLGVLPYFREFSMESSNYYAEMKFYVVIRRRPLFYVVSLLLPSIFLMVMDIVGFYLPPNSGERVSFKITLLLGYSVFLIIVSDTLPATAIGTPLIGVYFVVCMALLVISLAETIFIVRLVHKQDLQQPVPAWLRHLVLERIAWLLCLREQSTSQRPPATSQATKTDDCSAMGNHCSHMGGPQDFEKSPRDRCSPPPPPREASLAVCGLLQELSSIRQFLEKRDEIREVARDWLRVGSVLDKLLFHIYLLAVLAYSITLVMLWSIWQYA
Experimental: The experiments were carried out as follows. […] Oocytes avoid of the follicle layer were selected and incubated for 24 hours in Modified Barth's Saline buffer [88 mM NaCl, 1 mM KCl, 15 mM HEPES, 2.4 mM NaHCO3, 0.41 mM CaCl2, 0.82 mM MgSO4, 0.3 mM Ca(NO3)2] supplemented with 2 mM sodium pyruvate, 0.1 U/l penicillin and 0.1 μg/l streptomycin. Stage […] oocytes were identified and injected with 12-48 nl of nuclease free water containing 14-50 pg of cRNA coding for human 5-HT3A receptors receptors and incubated at 18° C. until they were used for electrophysiological recordings (1-7 days after injection). […] Cells were impaled with agar plugged 0.5-1 MΩ electrodes containing 3 M KCl and voltage clamped at −90 mV by a GeneClamp 500B amplifier. The oocytes were continuously perfused with Ringer buffer and the drugs were applied in the perfusate.

C57/B6 mice = experiment: Formalin model of neuropathic pain, time spent licking the injured paw; format: in vivo; conditions: summary in words of table 4
Experimental: The irritation caused by the formalin injection elicits a characteristic biphasic behavioural response, as quantified by the amount of time spent licking the injured paw. The first phase (˜0-10 minutes) represents direct chemical irritation and nociception, whereas the second (˜20-30 minutes) is thought to represent pain of neuropathic origin. The two phases are separated by a quiescent period in which behaviour returns to normal. Measuring the amount of time spent licking the injured paw in the two phases assesses the effectiveness of test compounds to reduce the painful stimuli. Eight C57/B6 mice (ca. 25 g) were tested per group. Table 4 below show the amount of time spent licking the injured paw in the two phases, i.e. 0-5 minutes and 20-30 minutes post formalin injection. The amount of compound administered is calculated as the free base.

[2] = test system: extracellular levels of acetylcholine; experiment: Microdialysis, extracellular acetylcholine in prefrontal cortex and ventral hippocampus of freely-moving rats (Example 2G); format: in vivo, rat; conditions: Sprague-Dawley rats, FIG. 25a+b
Experimental: The experiment was designed to evaluate the effects of compounds of the present invention on extracellular levels of acetylcholine in the prefrontal cortex and ventral hippocampus of freely-moving rats.
Male Sprague-Dawley rats, initially weighing 275-300 g, were used. The animals were housed under a 12-hr light/dark cycle under controlled conditions for regular in-door temperature (21±2° C.) and humidity (55±5%) with food and tap water available ad libitum.
Rats were anaesthetised with hypnorm/dormicum (2 ml/kg) and intracerebral guide cannulas (CMA/12) were stereotaxically implanted into the hippocampus, aiming to position the dialysis probe tip in the ventral hippocampus (co-ordinates: 5.6 mm posterior to bregma, lateral −5.0 mm, 7.0 mm ventral to dura or in the frontal cortex (co-ordinates: 3.2 mm anterior to bregma; lateral, 0.8 mm; 4.0 mm ventral to dura). Anchor screws and acrylic cement were used for fixation of the guide cannulas. The body temperature of the animals was monitored by rectal probe and maintained at 37° C. The rats were allowed to recover from surgery for 2 days, housed singly in cages. On the day of the experiment a microdialysis probe (CMA/12, 0.5 mm diameter, 3 mm length) was inserted through the guide cannula.
The probes were connected via a dual channel swivel to a microinjection pump. […]

T1 sequence (P28223 whole entry): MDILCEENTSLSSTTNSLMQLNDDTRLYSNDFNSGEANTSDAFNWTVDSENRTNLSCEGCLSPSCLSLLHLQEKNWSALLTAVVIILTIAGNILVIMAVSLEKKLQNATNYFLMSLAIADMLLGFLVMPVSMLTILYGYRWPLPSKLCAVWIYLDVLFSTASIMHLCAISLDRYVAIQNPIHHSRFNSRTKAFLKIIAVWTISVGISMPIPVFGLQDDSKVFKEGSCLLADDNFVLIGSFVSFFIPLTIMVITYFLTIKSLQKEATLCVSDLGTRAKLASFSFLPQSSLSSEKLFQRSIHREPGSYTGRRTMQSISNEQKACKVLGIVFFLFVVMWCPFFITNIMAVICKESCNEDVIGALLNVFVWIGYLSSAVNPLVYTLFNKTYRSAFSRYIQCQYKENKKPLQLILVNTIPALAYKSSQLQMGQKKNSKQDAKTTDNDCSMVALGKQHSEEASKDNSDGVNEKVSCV

Cc1ccc(Sc2ccccc2C2CCNCC2)cc1 [compound I, 4-[2-(4-methylphenylsulfanyl)-phenyl]piperidine]
Mode of action at human 5-HT2A receptors (human 5-HT2A receptors): competitive antagonistic properties
Maximal current, % of the maximal current elicited by 5-HT [1]: 70-80%
Effect in the first phase (direct chemical irritation and nociception) (C57/B6 mice): little effect
Effect in the second phase (time spent licking paws) (C57/B6 mice): clear and dose dependent decrease
Extracellular level of acetylcholine [2]: increase
